pEC50, pIC50: −log10 of the molar value. Read-outs that look alike come from different tables or passages of the source. One block for each molecule: values may come before it.
Columns and labels:
Experiment in all cases: Ca2+ mobilization, GFP-apoaequorin luminescence in CHO-K1 with Gα-16
[1] = test system: T1, S. kowalevskii Octopamine α; format: cell-based, Saccoglossus kowalevskii; settings: agonist, HBSS, 1.8 mM Ca2+, 10 mM glucose
T1 construct: gene Octopamine alpha receptor; full-length in pcDNA3.1(+), expressed in CHO-K1 with Gα-16 and GFP-apoaequorin
Excerpt: Ca2+ mobilization, GFP-apoaequorin luminescence in CHO-K1 with Gα-16 on S. kowalevskii Octopamine α

[2] = target: T2, P. dumerilii Octopamine α (Platynereis dumerilii, UniProt A0A1J0F445); format: cell-based
T2 construct: full-length in pcDNA3.1(+), expressed in CHO-K1 with Gα-16 and GFP-apoaequorin
T2 sequence (A0A1J0F445 1-603): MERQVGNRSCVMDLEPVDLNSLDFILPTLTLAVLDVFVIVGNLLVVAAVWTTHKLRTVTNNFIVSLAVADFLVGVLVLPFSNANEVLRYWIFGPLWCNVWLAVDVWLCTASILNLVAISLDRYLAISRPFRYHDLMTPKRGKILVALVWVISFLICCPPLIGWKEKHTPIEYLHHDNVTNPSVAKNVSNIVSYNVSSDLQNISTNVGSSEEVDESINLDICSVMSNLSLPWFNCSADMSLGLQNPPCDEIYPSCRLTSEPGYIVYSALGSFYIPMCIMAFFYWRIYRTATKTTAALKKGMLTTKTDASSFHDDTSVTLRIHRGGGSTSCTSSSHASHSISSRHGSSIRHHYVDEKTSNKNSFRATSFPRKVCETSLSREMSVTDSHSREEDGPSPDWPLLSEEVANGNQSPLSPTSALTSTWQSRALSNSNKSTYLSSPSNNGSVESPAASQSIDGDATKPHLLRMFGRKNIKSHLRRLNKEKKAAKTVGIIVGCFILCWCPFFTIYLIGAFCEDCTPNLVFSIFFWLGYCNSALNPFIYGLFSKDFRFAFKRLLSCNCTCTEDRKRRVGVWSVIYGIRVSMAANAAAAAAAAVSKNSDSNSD
Excerpt: Ca2+ mobilization, GFP-apoaequorin luminescence in CHO-K1 with Gα-16 on P. dumerilii Octopamine α

[3] = target: T3, S. kowalevskii Tyramine-2A (Saccoglossus kowalevskii, UniProt A0ABM0GNT8); format: cell-based
T3 construct: gene LOC100366600; full-length in pcDNA3.1(+), expressed in CHO-K1 with Gα-16 and GFP-apoaequorin
T3 sequence (A0ABM0GNT8 1-458): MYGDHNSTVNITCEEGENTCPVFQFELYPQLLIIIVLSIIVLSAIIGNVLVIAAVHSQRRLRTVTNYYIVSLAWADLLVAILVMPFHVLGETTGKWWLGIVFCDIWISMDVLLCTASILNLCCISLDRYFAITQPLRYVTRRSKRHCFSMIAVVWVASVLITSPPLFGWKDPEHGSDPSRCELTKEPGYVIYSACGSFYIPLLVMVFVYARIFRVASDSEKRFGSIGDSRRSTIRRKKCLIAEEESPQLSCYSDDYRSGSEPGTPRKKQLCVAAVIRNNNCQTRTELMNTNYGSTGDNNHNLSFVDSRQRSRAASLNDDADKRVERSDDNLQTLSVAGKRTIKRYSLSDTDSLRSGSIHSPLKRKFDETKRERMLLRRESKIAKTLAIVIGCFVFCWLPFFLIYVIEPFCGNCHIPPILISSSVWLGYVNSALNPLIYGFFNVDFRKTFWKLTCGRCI
Excerpt: Ca2+ mobilization, GFP-apoaequorin luminescence in CHO-K1 with Gα-16 on S. kowalevskii Tyramine-2A

P. dumerilii Tyramine-2 = target: T4, P. dumerilii Tyramine-2 (Platynereis dumerilii, UniProt A0A1J0F4P1); format: cell-based
T4 construct: full-length in pcDNA3.1(+), expressed in CHO-K1 with Gα-16 and GFP-apoaequorin
T4 sequence (A0A1J0F4P1 1-460): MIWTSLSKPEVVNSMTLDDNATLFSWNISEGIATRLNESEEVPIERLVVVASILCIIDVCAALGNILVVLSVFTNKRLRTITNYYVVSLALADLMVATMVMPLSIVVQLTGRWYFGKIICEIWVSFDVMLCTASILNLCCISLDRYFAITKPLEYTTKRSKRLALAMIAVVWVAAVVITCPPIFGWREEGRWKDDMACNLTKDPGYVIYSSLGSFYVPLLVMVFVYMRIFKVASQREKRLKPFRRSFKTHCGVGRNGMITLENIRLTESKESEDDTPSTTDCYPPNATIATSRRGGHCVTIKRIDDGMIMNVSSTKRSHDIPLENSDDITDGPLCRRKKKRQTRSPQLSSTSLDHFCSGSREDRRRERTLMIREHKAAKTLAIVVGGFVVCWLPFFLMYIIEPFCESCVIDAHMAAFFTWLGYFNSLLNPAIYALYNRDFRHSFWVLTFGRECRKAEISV
Excerpt: Ca2+ mobilization, GFP-apoaequorin luminescence in CHO-K1 with Gα-16 on P. dumerilii Tyramine-2

[4] = target: T5, S. kowalevskii Tyramine-1 (Saccoglossus kowalevskii, UniProt A0ABM0H1U8); format: cell-based
T5 construct: gene LOC100368763; full-length in pcDNA3.1(+), expressed in CHO-K1 with Gα-16 and GFP-apoaequorin
T5 sequence (A0ABM0H1U8 1-430): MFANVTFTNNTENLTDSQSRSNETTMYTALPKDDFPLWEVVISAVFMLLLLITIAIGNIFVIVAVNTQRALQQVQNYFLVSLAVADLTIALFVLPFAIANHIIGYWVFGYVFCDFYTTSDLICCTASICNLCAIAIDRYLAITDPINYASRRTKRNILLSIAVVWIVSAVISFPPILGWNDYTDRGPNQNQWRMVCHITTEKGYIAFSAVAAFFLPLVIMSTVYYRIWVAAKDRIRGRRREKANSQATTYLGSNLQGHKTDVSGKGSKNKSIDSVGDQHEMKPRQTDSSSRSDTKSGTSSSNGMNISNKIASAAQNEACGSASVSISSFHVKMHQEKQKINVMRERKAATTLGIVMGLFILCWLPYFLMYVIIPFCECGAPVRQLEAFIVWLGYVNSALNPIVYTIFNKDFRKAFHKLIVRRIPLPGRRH
Excerpt: Ca2+ mobilization, GFP-apoaequorin luminescence in CHO-K1 with Gα-16 on S. kowalevskii Tyramine-1

[5] = target: T6, S. kowalevskii Tyramine-2B (Saccoglossus kowalevskii, UniProt A0ABM0LZ08); format: cell-based
T6 construct: gene LOC102801068; full-length in pcDNA3.1(+), expressed in CHO-K1 with Gα-16 and GFP-apoaequorin
T6 sequence (A0ABM0LZ08 1-489): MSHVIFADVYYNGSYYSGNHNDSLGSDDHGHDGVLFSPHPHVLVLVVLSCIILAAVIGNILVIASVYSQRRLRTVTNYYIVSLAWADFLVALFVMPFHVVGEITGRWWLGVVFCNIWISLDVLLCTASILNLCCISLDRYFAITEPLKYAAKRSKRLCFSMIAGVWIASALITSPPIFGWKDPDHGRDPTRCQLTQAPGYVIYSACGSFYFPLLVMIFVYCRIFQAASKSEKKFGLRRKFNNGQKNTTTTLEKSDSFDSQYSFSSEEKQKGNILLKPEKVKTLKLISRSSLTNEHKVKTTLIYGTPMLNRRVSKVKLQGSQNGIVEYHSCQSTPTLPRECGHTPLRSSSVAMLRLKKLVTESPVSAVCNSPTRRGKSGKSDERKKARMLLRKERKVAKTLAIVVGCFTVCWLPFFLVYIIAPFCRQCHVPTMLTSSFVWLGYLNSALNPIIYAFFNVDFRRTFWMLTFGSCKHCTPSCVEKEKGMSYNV
Excerpt: Ca2+ mobilization, GFP-apoaequorin luminescence in CHO-K1 with Gα-16 on S. kowalevskii Tyramine-2B

P. dumerilii Tyramine-1 = target: T7, P. dumerilii Tyramine-1 (Platynereis dumerilii, UniProt A0A0K0PUV5); format: cell-based
T7 construct: full-length in pcDNA3.1(+), expressed in CHO-K1 with Gα-16 and GFP-apoaequorin
T7 sequence (A0A0K0PUV5 1-428): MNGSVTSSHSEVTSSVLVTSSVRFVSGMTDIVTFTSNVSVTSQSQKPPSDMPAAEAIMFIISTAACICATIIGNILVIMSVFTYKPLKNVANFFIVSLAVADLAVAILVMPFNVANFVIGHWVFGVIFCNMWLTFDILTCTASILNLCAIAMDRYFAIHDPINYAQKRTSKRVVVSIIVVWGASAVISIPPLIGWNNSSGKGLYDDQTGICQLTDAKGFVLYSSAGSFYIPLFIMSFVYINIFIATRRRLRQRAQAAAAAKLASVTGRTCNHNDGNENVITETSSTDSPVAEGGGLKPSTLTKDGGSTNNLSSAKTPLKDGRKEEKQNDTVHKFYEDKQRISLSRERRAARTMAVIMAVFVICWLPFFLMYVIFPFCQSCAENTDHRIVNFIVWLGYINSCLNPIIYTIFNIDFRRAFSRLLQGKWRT
Excerpt: Ca2+ mobilization, GFP-apoaequorin luminescence in CHO-K1 with Gα-16 on P. dumerilii Tyramine-1

Structure (SMILES): Clc1cccc(Cl)c1NC1=NCCN1 [clonidine]
pEC50 ([1]; read-out: Clonidine): 6.80
pEC50 ([2]; read-out: Clonidine): 6.85

pIC50 ([2]; read-out: Yohimbine): 8.05
Structure (SMILES): COC(=O)[C@@H]1[C@H]2C[C@H]3c4[nH]c5ccccc5c4CCN3C[C@@H]2CC[C@@H]1O [yohimbine]

Structure (SMILES): NCCc1ccc(O)cc1 [tyramine]
pEC50 [3]: 9.00
pEC50 (P. dumerilii Tyramine-2): 8.15
pEC50 [4]: 4.07
pEC50 [5]: 8.23
pEC50 (P. dumerilii Tyramine-1): 7.96

Structure (SMILES): NC[C@H](O)c1ccc(O)cc1 [octopamine]
pEC50 ([1]; read-out: Octopamine): 6.16
pEC50 ([2]; read-out: Octopamine): 6.59

Reference: PMC5282848, “Ancient coexistence of norepinephrine, tyramine, and octopamine signaling in bilaterians” (BMC Biology, 2017)
